Positions of bridges follow the written chain, without caps; N, C: chain ends. Non-standard residues stand in square brackets, D forms with d. Residues, ends and D or L forms follow the SMILES beside them. dDab = NCC[C@@H](N)C(=O)O; Dab = NCC[C@H](N)C(=O)O

For test [1], the system named is polymyxin-sensitive E. coli ATCC 25922. Briefly: microbe, parasite or virus in culture. The class given is cell-based. The protocol: (§1) Selected Gram-negative bacterial strains were taken from glycerol stocks and grown overnight on blood agar. A single colony was inoculated in TSB broth at 37 °C until an optical density of 0.5 at 600 nm (OD600) was reached. The bacterial suspension was diluted in freshly prepared CAMHB to 10^6 CFU/mL. Compounds were diluted along the plate, using 25 μL of CAMHB for each dilution. Antibiotic concentrations were prepared separately in a multiwell reservoir, including a control without antibiotic. Of each antibiotic stock, 25 μL was added to three columns to obtain triplicates for every condition. To each 50 μL containing well was then added 50 μL of the 10^6 CFU/mL bacterial suspension, and the plates were sealed with breathable seals. After incubation for 18 h at 37 °C while shaking, the seals were removed and the density of the bacterial suspensions was measured at 600 nm (OD600) using a Tecan Spark plate reader. The OD600 values were transformed to a 2D gradient with the negative control as the minimum and the positive control as the maximum. The FICI was calculated using the following equation: [drawing 1] with MSCant and MSCcomp indicating the optimal synergistic concentration of antibiotic and compound and MICant and MICcomp, the corresponding MICs of the individual compounds. An FICI ≤ 0.5 indicates synergy.[48]

For test [2], the system named is polymyxin-resistant (mcr-1 positive) E. coli. Briefly: microbe, parasite or virus in culture. The class given is cell-based. The protocol: as §1
In test [3] the test system is LPS from E. coli (O55:B5). Nature of the test: Isothermal titration calorimetry (ITC), LPS binding. Particulars: compound (1 mM) into LPS (20 µM), 20 mM HEPES pH 7, 37 °C, mean and SD of three experiments; for ΔG, fitted parameter for single site binding / ΔH, fitted parameter for single site binding / Kd: one-site model; for Kd: read-out: KD, fitted parameter for single site binding. The protocol:
Stock solutions of LPS (10 mg/mL, 0.5 mM) were prepared in 20 mM HEPES at pH 7 by suspension, sonication, and temperature cycling between 4 and 60 °C and stored overnight prior to use. LPS from E. coli (O55:B5) was used. Lipopeptide solutions (1 mM in 20 mM HEPES, pH 7) were titrated into a suspension of LPS (0.020 mM) in the same buffer. Control titrations included the titration of peptide into buffer and buffer into the LPS suspension to determine the corresponding heat of dilution. All binding experiments were performed using a MicroCal PEAQ-ITC Automated microcalorimeter (Malvern Panalytical Ltd., Malvern, UK). The samples were equilibrated to 37 °C prior to measurement. The titrations were conducted at 37 °C under constant stirring at 750 rpm. Each experiment consisted of an initial injection of 0.3 μL followed by 25 separate injections of 1.5 μL into the sample cell of 200 μL. The time between each injection was 180 s, and the measurements were performed with the reference power set at 5 μcal s^–1 and the feedback mode set at “low”. For all calculations performed, an estimated molecular weight of 20 kDa for LPS was applied. The calorimetric data thus obtained were analyzed using MicroCal PEAQ-ITC Analysis Software Version 1.20 (Malvern Panalytical Ltd., Malvern, UK), where the integrated heat signal is corrected for the heat of dilution of the titrant.

Test [4] has as its system E. coli ATCC 25922 (smooth LPS). Nature of the test: NPN uptake assay (outer membrane disruption). Particulars: NPN fluorescence after 1 h at RT, 5 mM HEPES pH 7.2 + 20 mM glucose, triplicates, result in words. The class given is cell-based. On the procedure: (§2) Bacteria were taken from glycerol stocks and grown in TSB overnight. Cultures were diluted either 50 or 100 times in Lysogeny Broth (LB) and grown at 37 °C to an OD600 of 0.5. Test compounds were prepared in HEPES buffer (5 mM, pH 7.2 + 20 mM glucose) and serially diluted (25 μL per well) on 1/2 the area of black 96-well plates with a transparent bottom. N-Phenyl-1-naphthylamine (NPN) was dissolved in acetone (0.5 mM) and diluted to 40 μM in HEPES buffer (5 mM, pH 7.2 + 20 mM glucose). 25 μL of the NPN solution was added to each well. The bacterial suspension was spin down (1000g, 10 min), and the remaining cell pellet was resuspended in half the original volume of HEPES buffer (5 mM, pH 7.2 + 20 mM glucose). 50 μL of bacterial suspension was added to each well. NPN fluorescence was measured after 1 h of incubation at RT with λex 355 ± 20 nm and λem 420 ± 20 nm. The measured fluorescence signal was corrected for NPN fluorescence in the absence of compounds (bacteria in buffer + NPN) and presented as relative fluorescence units (RFUs).

The test system of test [5] is E. coli BW25113 (rough LPS). Briefly: NPN uptake assay (outer membrane disruption). The class given is cell-based. As to conditions: NPN fluorescence after 1 h at RT, 5 mM HEPES pH 7.2 + 20 mM glucose, triplicates, result in words. On the procedure: as §2
Test [6] concerns P. aeruginosa ATCC 10145. The class given is cell-based. Particulars: P. aeruginosa ATCC 10145; CLSI microbroth dilution, CAMHB, 18 h, 37 °C, triplicate. The protocol: (§3) MICs of compounds were determined following CLSI guidelines using the microbroth dilution method in polypropylene plates. Selected Gram-negative bacterial strains (see Table S2 for strain sources) were taken from glycerol stocks and grown overnight on blood agar. Individual colonies were selected and grown in Tryptic Soy Broth (TSB) to an OD600 of 0.5. Compounds were diluted in Mueller Hinton Broth (MHB) supplemented with Mg^2+ and Ca^2+ at final concentrations of 12 and 20 mg/L, respectively (CAMHB). 50 μL was used for each well, and compounds were assessed in triplicates. Bacterial culture was diluted in CAMHB to 10^6 CFU/mL, yielding 5 × 10^5 CFU/mL upon addition of 50 μL of culture to 50 μL of compound solution. Positive and negative (sterility) controls were present on each plate. Plates were sealed with a semipermeable membrane and incubated for 22 h (A. baumannii) or 18 h (other strains) under shaking at 37 °C.
For orientation: Broth dilution looks for growth in wells or tubes with falling amounts of substance.

Test [7] deals with E. coli mcr-1. The test is classed as cell-based. Particulars: CLSI microbroth dilution, CAMHB, 18 h, 37 °C, triplicate. The protocol: as §3
For test [8], the system named is P. aeruginosa 2018-007. The test is classed as cell-based. As to conditions: P. aeruginosa 2018-007; CLSI microbroth dilution, CAMHB, 18 h, 37 °C, triplicate. On the procedure:
as §3

Test [9] deals with A. baumannii ATCC 19606. The class given is cell-based. Particulars: A. baumannii ATCC 19606; CLSI microbroth dilution, CAMHB, 22 h, 37 °C, triplicate. The protocol: as §3
The subject of test [10] is E. coli JW3594 (ΔwaaD). The class given is cell-based. As to conditions: truncated LPS, CLSI microbroth dilution, CAMHB, 18 h, 37 °C, triplicate. On the procedure: as §3
The test system of test [11] is P. aeruginosa NRZ03961. The test is classed as cell-based. Particulars: P. aeruginosa NRZ03961; CLSI microbroth dilution, CAMHB, 18 h, 37 °C, triplicate. The protocol: as §3
Test [12] relates to E. coli BW25113. The class given is cell-based. Particulars: E. coli BW25113; CLSI microbroth dilution, CAMHB, 18 h, 37 °C, triplicate. On the procedure: as §3
Test [13] deals with K. pneumoniae ATCC 13883. The class given is cell-based. Particulars: K. pneumoniae ATCC 13883; CLSI microbroth dilution, CAMHB, 18 h, 37 °C, triplicate. On the procedure:
as §3

Test [14] relates to P. aeruginosa ATCC 27853. The class given is cell-based. As to conditions: P. aeruginosa ATCC 27853; CLSI microbroth dilution, CAMHB, 18 h, 37 °C, triplicate. The protocol:
as §3

Test [15] deals with E. coli ATCC 25922. The test is classed as cell-based. As to conditions: E. coli ATCC 25922; CLSI microbroth dilution, CAMHB, 18 h, 37 °C, triplicate. The protocol:
as §3

For test [16], the system named is E. coli JW3596 (ΔwaaC). The test is classed as cell-based. As to conditions: truncated LPS, CLSI microbroth dilution, CAMHB, 18 h, 37 °C, triplicate. On the procedure: as §3

As for `CC(C)C[C@@H]1NC(=O)[C@@H](Cc2ccccc2)NC(=O)[C@H](CCN)NC(=O)[C@@H](NC(=O)[C@H](CCN)NC(=O)[C@@H](N)[C@@H](C)O)CCNC(=O)[C@H]([C@@H](C)O)NC(=O)[C@H](CCN)NC(=O)[C@H](CCN)NC1=O` [PMBN, polymyxin B nonapeptide, reference compound] (H-T[Dab][Dab][Dab][dF]L[Dab][Dab]T; lactam 3-C (inferred); N-terminus assumed), the MIC alone in test [1] (ATCC 25922, 18 h) is not below 256 µg/mL. Also, in test [2] (E. coli mcr-1, combination with rifampicin, checkerboard, CAMHB, 18 h, 37 °C, OD600, FICI ≤ 0.5 indicates synergy), the FICI was not above 0.14. Moreover, in test [3], the “ΔΔH, maximum enthalpy observed after subtraction of dilution control” value was -7.20 ± 0.19 kcal/mol; the “ΔG, fitted parameter for single site binding” value was -7.24 ± 0.03 kcal/mol; the “ΔH, fitted parameter for single site binding” value was -8.4 ± 0.25 kcal/mol; the equilibrium dissociation constant (Kd) is 8 ± 0.4 µM. In test [4], the “OM disruption (NPN uptake)” value is reported as “potent OM disruption”. Moreover, the “OM disruption (NPN uptake)” value in test [5] is “potent OM disruption”.
Take `CC(C)C[C@H]1NC(=O)[C@H](Cc2ccccc2)NC(=O)[C@@H](CCN)NC(=O)[C@H](NC(=O)[C@@H](CCN)NC(=O)[C@H](N)[C@H](C)O)CCNC(=O)[C@@H]([C@H](C)O)NC(=O)[C@@H](CCN)NC(=O)[C@@H](CCN)NC1=O` [ent-PMBN] (H-[dT][dDab][dDab][dDab]F[dL][dDab][dDab][dT]; lactam 3-C): in test [1] (ATCC 25922, 18 h), the MIC alone is not below 256 µg/mL. Further, in test [3], the “ΔΔH, maximum enthalpy observed after subtraction of dilution control” value is -4.91 ± 0.03 kcal/mol; the “ΔG, fitted parameter for single site binding” value is listed as -7.69 ± 0.06 kcal/mol; the “ΔH, fitted parameter for single site binding” value is -5.2 ± 0.03 kcal/mol; the Kd stood at 3.9 ± 0.4 µM. Besides, the “OM disruption (NPN uptake)” value in test [4] is listed as “weak OM disruption”. The “OM disruption (NPN uptake)” value in test [5] is listed as “higher degree of OM perturbation”.
With “Polymyxin B sulfate [PmxB (commercial), reference compound]”, the MIC in [6] is 1 µg/mL; in test [7], 4 µg/mL; in test [8], 2 µg/mL; in [9], 0.25 µg/mL; in test [10], 0.06 µg/mL; in test [11], 1 µg/mL. The MIC came to 1 µg/mL in [12]; 0.25 µg/mL in test [13]; 1 µg/mL in test [14]; 1 µg/mL in [15]; 0.06 µg/mL in [16].
Regarding `CO[C@H]1/C=C/O[C@@]2(C)Oc3c(C)c(O)c4c(O)c(c(/C=N/N5CCN(C)CC5)c(O)c4c3C2=O)NC(=O)/C(C)=C\C=C\[C@H](C)[C@H](O)[C@@H](C)[C@@H](O)[C@@H](C)[C@H](OC(C)=O)[C@@H]1C` [Rifampicin, rifampicin], in test [1] (E. coli ATCC 25922, checkerboard, substance alone), the MIC alone is recorded as 8 µg/mL. In addition, the “MIC in combination (rifampicin)” value amounted to 0.1 µg/mL in [1] (E. coli ATCC 25922, rifampicin in combination with PMBN (2 µg/mL)); 0.5 µg/mL in test [1] (E. coli ATCC 25922, rifampicin in combination with PmxB4 (1 µg/mL)); 2 µg/mL in test [1] (E. coli ATCC 25922, rifampicin in combination with ent-PMBN (32 µg/mL)); 0.1 µg/mL in test [1] (E. coli ATCC 25922, rifampicin in combination with ent-PmxB4 (8 µg/mL)); 1 µg/mL in test [2] (E. coli mcr-1, rifampicin in combination with PMBN (4 µg/mL)); 0.3 µg/mL in test [2] (E. coli mcr-1, rifampicin in combination with PmxB4 (1 µg/mL)). The “MIC in combination (rifampicin)” value was 2 µg/mL in test [2] (E. coli mcr-1, rifampicin in combination with ent-PMBN (32 µg/mL)) and 1 µg/mL in test [2] (E. coli mcr-1, rifampicin in combination with ent-PmxB4 (8 µg/mL)). Further, the MIC in [1] (Escherichia coli, ATCC25922, E. coli ATCC 25922, checkerboard, substance alone) was 8 µg/mL; in [2] (Escherichia coli, read-out: MIC alone), 8 µg/mL.

For orientation: Kd means the constant that tells how readily two partners part at equilibrium.

For the origin of these results see paper PMC9745799, “Polymyxin Stereochemistry and Its Role in Antibacterial Activity and Outer Membrane Disruption” (ACS Infectious Diseases, 2022).
